Test results as given in the NIST ThermoML archive (doi:10.1016/j.fluid.2013.10.029).

Assays:
[1] = Liquid; for vapor or sublimation pressure: Ebulliometric method (Recirculating still); for mass density: 101 kPa, Vibrating tube method
[2] = excess molar enthalpy (molar enthalpy of mixing); xn = mol fraction of the nth substance listed; conditions: 298.15 K, 101 kPa, Liquid, isothermal titration calorimeter
[3] = xn = mol fraction of the nth substance listed; conditions: 101.33 kPa, Liquid, Vibrating tube method, x2 = 0

C1CCCCC1 [cyclohexane]
[1]
Conditions | vapor or sublimation pressure [kPa]
338.15 K | 61.5
348.15 K | 84.7

c1cc[nH]c1 [pyrrole] + CCCCO
[2]
Conditions | excess molar enthalpy [kcal/mol]
x1 = 0.0262 | 0.00454
x1 = 0.0776 | 0.0248
x1 = 0.1154 | 0.0454
x1 = 0.1526 | 0.0679
x1 = 0.189 | 0.091
x1 = 0.2248 | 0.114
x1 = 0.2599 | 0.135
x1 = 0.2944 | 0.155
x1 = 0.3283 | 0.174
x1 = 0.3616 | 0.19
x1 = 0.3943 | 0.205
x1 = 0.4265 | 0.217
x1 = 0.4581 | 0.228
x1 = 0.4891 | 0.236
x1 = 0.5196 | 0.242
x1 = 0.5497 | 0.246
x1 = 0.5703 | 0.246
x1 = 0.5792 | 0.248
x1 = 0.5803 | 0.246
x1 = 0.6003 | 0.247
x1 = 0.6082 | 0.248
x1 = 0.6203 | 0.246
x1 = 0.6225 | 0.248
x1 = 0.6403 | 0.244
x1 = 0.6603 | 0.241
x1 = 0.6803 | 0.238
x1 = 0.7003 | 0.233
x1 = 0.7203 | 0.227
x1 = 0.7403 | 0.22
x1 = 0.7603 | 0.211
x1 = 0.7803 | 0.202
x1 = 0.8002 | 0.191
x1 = 0.8202 | 0.179
x1 = 0.8403 | 0.166
x1 = 0.8603 | 0.151
x1 = 0.8802 | 0.135
x1 = 0.9002 | 0.117
x1 = 0.9201 | 0.0972
x1 = 0.9401 | 0.0761
x1 = 0.9601 | 0.0532
x1 = 0.98 | 0.0285

c1cc[nH]c1 [pyrrole] + CCCCCO
[2]
Conditions | excess molar enthalpy [kcal/mol]
x1 = 0.0374 | 0.00848
x1 = 0.0962 | 0.0373
x1 = 0.1388 | 0.0644
x1 = 0.1801 | 0.0927
x1 = 0.2202 | 0.12
x1 = 0.259 | 0.147
x1 = 0.2967 | 0.171
x1 = 0.3333 | 0.193
x1 = 0.3689 | 0.212
x1 = 0.4034 | 0.229
x1 = 0.437 | 0.243
x1 = 0.4696 | 0.254
x1 = 0.5014 | 0.263
x1 = 0.5323 | 0.269
x1 = 0.5604 | 0.271
x1 = 0.5624 | 0.273
x1 = 0.5804 | 0.272
x1 = 0.5916 | 0.275
x1 = 0.6004 | 0.273
x1 = 0.6202 | 0.275
x1 = 0.6204 | 0.272
x1 = 0.6404 | 0.271
x1 = 0.648 | 0.272
x1 = 0.6604 | 0.268
x1 = 0.6616 | 0.27
x1 = 0.6804 | 0.264
x1 = 0.7004 | 0.259
x1 = 0.7204 | 0.253
x1 = 0.7404 | 0.245
x1 = 0.7604 | 0.236
x1 = 0.7804 | 0.226
x1 = 0.8004 | 0.214
x1 = 0.8204 | 0.2
x1 = 0.8404 | 0.185
x1 = 0.8603 | 0.169
x1 = 0.8803 | 0.15
x1 = 0.9002 | 0.13
x1 = 0.9202 | 0.108
x1 = 0.9401 | 0.084
x1 = 0.9601 | 0.0576
x1 = 0.98 | 0.0289

c1ccccc1 [benzene]
[1]
Conditions | vapor or sublimation pressure [kPa]
338.15 K | 62.1
348.15 K | 86.4

c1cc[nH]c1 [pyrrole] + CCCO
[2]
Conditions | excess molar enthalpy [kcal/mol]
x1 = 0.0299 | 0.00707
x1 = 0.0598 | 0.0144
x1 = 0.0897 | 0.0255
x1 = 0.1197 | 0.0392
x1 = 0.1497 | 0.0547
x1 = 0.1796 | 0.071
x1 = 0.2096 | 0.0877
x1 = 0.2396 | 0.104
x1 = 0.2696 | 0.12
x1 = 0.2996 | 0.136
x1 = 0.3296 | 0.15
x1 = 0.3596 | 0.163
x1 = 0.3896 | 0.175
x1 = 0.4197 | 0.185
x1 = 0.4497 | 0.193
x1 = 0.4652 | 0.199
x1 = 0.4797 | 0.2
x1 = 0.4902 | 0.205
x1 = 0.5202 | 0.211
x1 = 0.5502 | 0.215
x1 = 0.5803 | 0.217
x1 = 0.6103 | 0.218
x1 = 0.6403 | 0.216
x1 = 0.6703 | 0.212
x1 = 0.7003 | 0.206
x1 = 0.7303 | 0.198
x1 = 0.7603 | 0.188
x1 = 0.7903 | 0.175
x1 = 0.8203 | 0.159
x1 = 0.8503 | 0.14
x1 = 0.8802 | 0.119
x1 = 0.9101 | 0.0942
x1 = 0.9401 | 0.0658
x1 = 0.97 | 0.0338

c1cc[nH]c1 [pyrrole] + C1CCCCC1
[2]
Conditions | excess molar enthalpy [kcal/mol]
x1 = 0.015 | 0.056
x1 = 0.03 | 0.0991
x1 = 0.0451 | 0.131
x1 = 0.0601 | 0.155
x1 = 0.0752 | 0.175
x1 = 0.0905 | 0.192
x1 = 0.1057 | 0.207
x1 = 0.1208 | 0.221
x1 = 0.1358 | 0.233
x1 = 0.1543 | 0.246
x1 = 0.1692 | 0.255
x1 = 0.184 | 0.264
x1 = 0.1989 | 0.272
x1 = 0.2139 | 0.279
x1 = 0.2288 | 0.286
x1 = 0.2437 | 0.292
x1 = 0.2587 | 0.297
x1 = 0.2737 | 0.302
x1 = 0.2887 | 0.307
x1 = 0.3037 | 0.311
x1 = 0.3186 | 0.315
x1 = 0.3337 | 0.319
x1 = 0.3485 | 0.322
x1 = 0.3677 | 0.327
x1 = 0.3829 | 0.33
x1 = 0.3982 | 0.333
x1 = 0.4135 | 0.335
x1 = 0.4287 | 0.337
x1 = 0.444 | 0.338
x1 = 0.4592 | 0.34
x1 = 0.4745 | 0.341
x1 = 0.4898 | 0.341
x1 = 0.505 | 0.341
x1 = 0.5203 | 0.341
x1 = 0.5355 | 0.34
x1 = 0.5507 | 0.34
x1 = 0.566 | 0.338
x1 = 0.5812 | 0.337
x1 = 0.5964 | 0.335
x1 = 0.6116 | 0.332
x1 = 0.6269 | 0.329
x1 = 0.6421 | 0.325
x1 = 0.6573 | 0.321
x1 = 0.6725 | 0.317
x1 = 0.6878 | 0.312
x1 = 0.703 | 0.306
x1 = 0.7182 | 0.298
x1 = 0.731 | 0.289
x1 = 0.7468 | 0.28
x1 = 0.7627 | 0.269
x1 = 0.7786 | 0.259
x1 = 0.7945 | 0.248
x1 = 0.8104 | 0.236
x1 = 0.8263 | 0.223
x1 = 0.8421 | 0.209
x1 = 0.858 | 0.193
x1 = 0.874 | 0.177
x1 = 0.8899 | 0.159
x1 = 0.9058 | 0.139
x1 = 0.9218 | 0.119
x1 = 0.9377 | 0.0962
x1 = 0.9537 | 0.0726
x1 = 0.9691 | 0.0481
x1 = 0.9846 | 0.0222

c1ccncc1 [pyridine] + c1cc[nH]c1
[3]
Conditions | mass density [kg/m3]
298.15 K | 978.01
308.15 K | 967.91
318.15 K | 957.76
328.15 K | 947.56
338.15 K | 937.3

c1ccncc1 [pyridine]
[1]
Conditions | mass density [kg/m3] | vapor or sublimation pressure [kPa]
298.15 K | 978.01 | –
308.15 K | 967.91 | –
318.15 K | 957.76 | –
328.15 K | 947.56 | –
338.15 K | 937.3 | –
353.15 K | – | 32.3
363.15 K | – | 45.9
373.15 K | – | 63.7

c1cc[nH]c1 [pyrrole]
[1]
Conditions | mass density [kg/m3] | vapor or sublimation pressure [kPa]
298.15 K | 965.54 | –
308.15 K | 956.83 | –
318.15 K | 948.03 | –
328.15 K | 939.14 | –
338.15 K | 930.13 | 9.4
348.15 K | – | 14.6
353.15 K | – | 18
358.15 K | – | 21.9
363.15 K | – | 26.8
373.15 K | – | 38.5
